Experiment [1] addresses PI3Kγ (p110γ) Recombinant Human Protein (Homo sapiens (Human), UniProt P48736). Kind of experiment: PI3K-γ scintillation proximity assay. The format is biochemical. The settings on record: scintillation proximity assay, recombinant human p110γ. For orientation: Scintillation proximity formats need no separation of bound from free tracer.
In experiment [2] the test system is Phosphorylated Ribosomal Protein S6 (RPS6) in THP-1 cells. Kind of experiment: THP-1 RPS6 ELISA assay. The format is cell-based, Human. To be noted: Homo sapiens, THP-1 cells, 10 nM MCP-1, phospho-RPS6 ELISA, read-out: PI3Kγ_THP1_RPS6_ELISA IC50. On the technique in general: ELISA stands for enzyme-linked immunosorbent assay.
In experiment [3] the target is PI3Kδ (p1106/p85a) Recombinant Human Protein (Homo sapiens (Human), UniProt O00329). Kind of experiment: PI3Kδ scintillation proximity assay. The format is biochemical. To be noted: scintillation proximity assay, recombinant human PI3Kδ.

Where a name gives a salt, the structure may show the parent alone. Read-outs that look alike come from different tables or passages of the source.

The source of these data is patent US20250388553A1 (Incyte Corporation, priority 2018, published 2025).

By IC50 is commonly meant the midpoint of a concentration-inhibition curve.

Sequence of PI3Kγ (p110γ) Recombinant Human Protein (P48736 whole entry): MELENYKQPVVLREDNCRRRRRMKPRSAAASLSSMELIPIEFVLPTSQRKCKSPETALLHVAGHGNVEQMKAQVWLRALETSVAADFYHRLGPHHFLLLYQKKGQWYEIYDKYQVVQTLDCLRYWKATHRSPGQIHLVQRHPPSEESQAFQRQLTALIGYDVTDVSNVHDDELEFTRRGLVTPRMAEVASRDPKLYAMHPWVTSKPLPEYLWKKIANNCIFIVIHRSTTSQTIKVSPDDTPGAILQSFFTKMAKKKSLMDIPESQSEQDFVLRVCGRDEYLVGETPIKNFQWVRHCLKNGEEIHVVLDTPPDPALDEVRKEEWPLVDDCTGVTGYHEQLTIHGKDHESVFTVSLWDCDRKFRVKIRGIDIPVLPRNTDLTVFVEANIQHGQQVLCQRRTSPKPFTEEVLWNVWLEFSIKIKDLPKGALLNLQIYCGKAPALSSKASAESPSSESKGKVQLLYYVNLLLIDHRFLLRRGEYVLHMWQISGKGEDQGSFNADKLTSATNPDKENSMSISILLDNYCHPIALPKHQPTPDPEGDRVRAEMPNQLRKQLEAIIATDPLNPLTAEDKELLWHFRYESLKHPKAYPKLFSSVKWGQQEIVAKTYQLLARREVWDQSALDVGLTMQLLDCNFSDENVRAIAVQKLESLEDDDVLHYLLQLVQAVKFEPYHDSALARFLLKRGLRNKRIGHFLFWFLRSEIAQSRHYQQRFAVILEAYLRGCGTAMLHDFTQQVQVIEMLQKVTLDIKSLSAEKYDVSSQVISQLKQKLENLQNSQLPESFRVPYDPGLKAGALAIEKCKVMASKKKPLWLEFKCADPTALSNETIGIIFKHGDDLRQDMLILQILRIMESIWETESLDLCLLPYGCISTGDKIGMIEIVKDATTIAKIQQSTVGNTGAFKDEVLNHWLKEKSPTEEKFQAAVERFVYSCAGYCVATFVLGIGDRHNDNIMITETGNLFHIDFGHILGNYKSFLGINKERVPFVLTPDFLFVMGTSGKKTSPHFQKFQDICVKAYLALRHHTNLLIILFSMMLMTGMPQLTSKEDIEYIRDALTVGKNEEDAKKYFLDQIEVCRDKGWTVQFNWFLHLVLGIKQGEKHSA
Sequence of PI3Kδ (p1106/p85a) Recombinant Human Protein (O00329 whole entry): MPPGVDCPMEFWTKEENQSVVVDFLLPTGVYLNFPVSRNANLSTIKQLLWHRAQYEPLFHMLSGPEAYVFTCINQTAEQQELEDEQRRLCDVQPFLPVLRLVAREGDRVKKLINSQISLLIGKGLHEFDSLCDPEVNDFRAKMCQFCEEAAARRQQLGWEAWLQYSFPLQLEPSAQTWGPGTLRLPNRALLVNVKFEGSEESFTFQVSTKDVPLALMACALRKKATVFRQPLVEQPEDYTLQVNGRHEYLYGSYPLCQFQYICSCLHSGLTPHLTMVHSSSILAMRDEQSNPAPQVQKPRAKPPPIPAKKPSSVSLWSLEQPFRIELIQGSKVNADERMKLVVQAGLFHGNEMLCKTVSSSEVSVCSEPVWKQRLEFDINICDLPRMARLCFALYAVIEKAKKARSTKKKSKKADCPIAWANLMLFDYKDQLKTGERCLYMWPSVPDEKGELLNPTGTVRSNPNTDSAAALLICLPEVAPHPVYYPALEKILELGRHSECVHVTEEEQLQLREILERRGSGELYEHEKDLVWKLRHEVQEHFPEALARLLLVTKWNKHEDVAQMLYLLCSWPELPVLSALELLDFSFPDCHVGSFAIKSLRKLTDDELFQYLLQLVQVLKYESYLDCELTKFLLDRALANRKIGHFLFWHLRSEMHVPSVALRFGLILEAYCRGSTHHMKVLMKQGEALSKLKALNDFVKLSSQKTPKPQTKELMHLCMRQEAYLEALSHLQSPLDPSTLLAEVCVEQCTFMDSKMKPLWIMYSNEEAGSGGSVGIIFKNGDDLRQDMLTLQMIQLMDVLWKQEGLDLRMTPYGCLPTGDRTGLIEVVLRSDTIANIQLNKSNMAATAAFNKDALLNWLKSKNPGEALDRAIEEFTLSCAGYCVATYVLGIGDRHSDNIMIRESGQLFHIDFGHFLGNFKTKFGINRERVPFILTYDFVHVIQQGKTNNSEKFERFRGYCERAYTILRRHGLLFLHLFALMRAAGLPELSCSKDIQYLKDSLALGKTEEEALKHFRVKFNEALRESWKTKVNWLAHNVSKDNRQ
Sequence of PI3Kδ (p1106/p85a) Recombinant Human Protein (P27986 whole entry partner): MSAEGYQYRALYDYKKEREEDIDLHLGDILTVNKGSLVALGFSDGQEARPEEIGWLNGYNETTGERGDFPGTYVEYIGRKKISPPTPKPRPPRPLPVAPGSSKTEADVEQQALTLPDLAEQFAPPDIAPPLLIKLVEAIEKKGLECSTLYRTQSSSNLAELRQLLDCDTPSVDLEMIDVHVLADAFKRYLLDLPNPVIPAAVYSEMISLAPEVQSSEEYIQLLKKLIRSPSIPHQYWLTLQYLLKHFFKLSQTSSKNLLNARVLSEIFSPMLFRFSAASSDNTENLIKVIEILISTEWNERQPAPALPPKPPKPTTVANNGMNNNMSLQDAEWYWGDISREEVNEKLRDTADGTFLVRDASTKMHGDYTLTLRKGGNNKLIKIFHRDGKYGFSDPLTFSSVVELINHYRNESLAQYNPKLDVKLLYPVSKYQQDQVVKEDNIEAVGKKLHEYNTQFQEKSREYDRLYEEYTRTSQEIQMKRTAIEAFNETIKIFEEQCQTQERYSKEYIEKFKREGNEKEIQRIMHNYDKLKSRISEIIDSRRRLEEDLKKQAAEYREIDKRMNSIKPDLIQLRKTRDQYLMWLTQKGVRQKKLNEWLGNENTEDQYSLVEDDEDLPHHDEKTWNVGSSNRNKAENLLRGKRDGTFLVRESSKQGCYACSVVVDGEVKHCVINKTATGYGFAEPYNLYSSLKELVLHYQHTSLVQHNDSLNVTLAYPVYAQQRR

With `Cc1ccc(C(O)(CNC=O)C(F)(F)F)cc1-c1cnc(N)c(-c2cn[nH]c2)n1` (stereo not drawn) [Example 103, N-(2-(3-(5-amino-6-(1H-pyrazol-4-yl)pyrazin-2-yl)-4-methylphenyl)-3,3,3-trifluoro-2-hydroxypropyl)formamide trifluoroacetate], the half-inhibitory concentration (IC50) in experiment [1] (Table A3) was under 100 nM; in experiment [2] (Table A3), 100 to 500 nM; in experiment [3] (Table A3), 100 to 500 nM.
As to `COC[C@H]1CCN1C(=O)c1nc(-c2cc(C(O)(C(N)=O)C(F)(F)F)ccc2C)cnc1N` (stereo partly drawn) [Example 26, 2-(3-(5-amino-6-((R)-2-(methoxymethyl)azetidine-1-carbonyl)pyrazin-2-yl)-4-methylphenyl)-3,3,3-trifluoro-2-hydroxypropanamide], the IC50 in experiment [1] (Table A1) is under 100 nM; in experiment [2] (Table A1), 100 to 500 nM; in experiment [3] (Table A1), under 100 nM.
Consider `Cc1ccc(C(O)(C(N)=O)C(F)(F)F)cc1-c1cnc(N)c(-c2ccc(C(F)(F)F)nc2)n1` (stereo not drawn) [Example 83, 2-(3-(5-amino-6-(6-(trifluoromethyl)pyridin-3-yl)pyrazin-2-yl)-4-methylphenyl)-3,3,3-trifluoro-2-hydroxypropanamide bistrifluoroacetate], for which the IC50 in experiment [1] (Table A3) was under 100 nM; in experiment [2] (Table A3) it was 100 to 500 nM; in experiment [3] (Table A3), under 100 nM.
